According to patent publication US20230192653A1, “Novel Therapeutic Methods” (GUANGZHOU MAXINOVEL PHARMACEUTICALS CO., LTD., priority 2020, published 2023):
Where “and” joins values, the source holds several entries; their conditions need not be identical. Identical values can stand only once. Entries after “also recorded” stand apart in the source; their conditions may differ.

Experiments:
Type in all cases: in vivo, human
[1] = test system: Cholangiocarcinoma (patient tumor cells in mini-PDX capsules); assay: Mini-PDX assay, cholangiocarcinoma; details: Compound 1 12 mg per kg oral once daily 7 days, effective = P ≤ 0.05, per patient sample
Protocol: (§1) A mini patient-derived xenograft (mini-PDX) is used to assess the sensitivity of different tumors to treatment with Compound 1 (MAX-40279). In this experiment, clinical tumor samples from patients are treated in the mini-PDX by oral administration of Compound 1, and FGFR1OP2 expression level in those samples is analyzed.
(§2) Tumor tissue acquisition is approved by the ethics committees of each participating hospital and agreed to by each patient via written informed consent and is carried out according to state and institutional regulations on experimental use of human tissues. The patient samples are corrected if tumors >500 mm^3 in size with a necrotic area <30% are used. […]
(§3) Thereafter, the implanted capsules are removed, and tumor cell proliferation is evaluated using the CellTiter Glo Luminescent Cell Viability Assay kit (G7571, Promega, Madison, Wis., US) as instructed by the manufacturer. Luminescence is measured in terms of relative luminance unit (RLU) using a spectrophotometer (SpectraMax M3, Molecular Devices, Sunnyvale, Calif., US). Tumor cell growth inhibition (TCGI) (%) is calculated using the formula: TCGI %=(1−[mean RLU of the treatment group on day 7-mean RLU on day 0]/[Mean RLU of vehicle group on day 7−Mean RLU on day 0])×100%, Each experiment is done in sextuplicate and mean values are reported. […]

[2] = test system: Pancreatic Cancers (patient tumor cells in mini-PDX capsules); assay: Mini-PDX assay, pancreatic cancers; details: Compound 1 12 mg per kg oral once daily 7 days, effective = P ≤ 0.05, per patient sample
Protocol: as §1, §2, §3

[3] = test system: cancer patients; assay: Clinical efficacy of Compound 1 in cancer patients; parameters: key to CT Observation: Stable Disease, or SD, signifies that there has been no significant decrease or increase in the size of target lesions (including tumors), based on the smallest sum lesion diameter (LD); Progressive Disease, or PD, signifies that there has been an increase of at least 20% in the sum of the LD of targeted lesions; details: for CT Observation: per patient
Protocol: Stable Disease, or SD, signifies that there has been no significant decrease or increase in the size of target lesions (including tumors), based on the smallest sum lesion diameter (LD). Progressive Disease, or PD, signifies that there has been an increase of at least 20% in the sum of the LD of targeted lesions.
Patients are treated with Compound 1, given orally at the indicated daily dose. […] Although patients were not selected for high expression of FGFR1OP2 and FGFR1, the clinical response appears related to the expression levels of FGFR1OP2 and FGFR1. Squamous tumors seem particularly susceptible, as both patients with squamous tumors are SDs. Two of the three patients with SD are in 100 mg/day group, one of whom has 20% tumor reduction observed at the second and the fourth cycle by CT examination and is still under treatment. Adverse events are mild, so further dose escalation above 120 mg/day can be considered.

[4] = test system: Liver Cancers (patient tumor cells in mini-PDX capsules); assay: Mini-PDX assay, liver cancers; details: Compound 1 12 mg per kg oral once daily 7 days, effective = P ≤ 0.05, per patient sample
Protocol: as §1, §2, §3

[5] = test system: clinical tumor samples from patients; assay: Mini-PDX assay, all tumor samples from patients
Protocol: FIG. 1 is the RLU (ATP Enzyme activity) of cells from mini-PDX vehicles. The cancer cells derived from patients were embedded in the mini-PDX vehicles and implanted in the mice for cultivating 7 days. The mice were treated with MAX-40279(12mpk, PO, BID) or not. After 7 days, cells in mini-PDX vehicles were collected and ATP Enzyme activity was used to represent the cell viability.
as §1, with “analyzed. […]” for “analyzed.”
as §3

[6] = test system: Gastric Cancer (patient tumor cells in mini-PDX capsules); assay: Mini-PDX assay, gastric cancer; details: Compound 1 12 mg per kg oral once daily 7 days, effective = P ≤ 0.05, per patient sample
Protocol: as §1, §2, §3

COc1cc(F)ccc1-c1c(C)sc2cnc(Nc3cnn(C4CCNCC4)c3)nc12 [Compound 1]
Efficacy (P ≤ 0.05) [1]: Non-effective; also recorded: effective
Efficacy (P ≤ 0.05) [2]: Non-effective; also recorded: effective
CT Observation ([3]; 40 mg oral daily dose): SD
CT Observation ([3]; 70 mg oral daily dose): PD (Progressive Disease, or PD, signifies that there has been an increase of at least 20% in the sum of the LD of targeted lesions)
tumor reduction by CT examination ([3]; 100 mg oral daily dose, CRC, observed at second and fourth cycle): 20%
CT Observation ([3]; 100 mg oral daily dose): SD (2×) and PD (Progressive Disease, or PD, signifies that there has been an increase of at least 20% in the sum of the LD of targeted lesions)
Adverse events ([3]; patients, 40-100 mg oral daily dose): mild
stabilizes progression of the cancer (patients with SD) ([3]; seven patients, 40-100 mg oral daily dose): three of the seven patients
Efficacy (P ≤ 0.05) [4]: Non-effective; also recorded: effective
share of tumor samples from patients in which Compound 1 is effective ([5]; 30 tumor samples, mini-PDX, 13/30): 43%
Tumor cell growth inhibition (TCGI) ([5]; FIG. 1, initial screen of 4 samples, 7 days oral administration, compared to placebo): effective TCGI
Efficacy (P ≤ 0.05) [6]: Non-effective; also recorded: effective
